Series [1] concerns human red blood cells (hRBC). Description: Hemolysis. The class given is cell-based. In short, it runs like this: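 Washed fresh human erythrocytes (20% v/v, about 0.9×10^9 cells/ml final) incubated with peptide at 100 μM for 1 h at 37° C. Supernatant diluted 20-fold and OD540 read. Percent hemolysis relative to 0.1% Triton X-100 in H2O (100%), with PBS alone as 0%.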
The next series can be described thus: in vitro. The settings on record: human.
A further series deals with CXCR4 (Homo sapiens, UniProt P61073). The series is described as follows: Ca2+-assay method 2 (Flexstation, SDF-1 induced calcium mobilization). To be noted: method 2 (Ex. 54-160), mouse pre-B cell line 300-19 with human CXCR4, 10 nM SDF-1. The series is classed as cell-based. Also on record: expressed in transfected cells; host or cells: mouse pre-B cell line 300-19.
Where [2] appears, read: read-out: IC50 (nM) Ca^2+ assay.
[3] abbreviates: percent hemolysis, 100 μM peptide, 20% v/v hRBC, 1 hour at 37° C.

Read-outs that look alike come from different tables or passages of the source. Numbered stars: 1 amine (or outer) side, 2 acyl side, 3 side chain; on linkers, the order of the positions; unused ones are H or OH. Bridge positions count the residues as written; N and C are the ends. Square brackets hold non-standard residues; d marks the D form. Peptide text beside a SMILES is read from it. X3 = COCCOCCOCC(=O)N[C@H]1C[C@@H](C(=O)[*:2])N([*:1])C1; Phe(4-F) = N[C@@H](Cc1ccc(F)cc1)C(=O)O; 2Nal = N[C@@H](Cc1ccc2ccccc2c1)C(=O)O; 4Pal = N[C@@H](Cc1ccncc1)C(=O)O; Cit = NC(=O)NCCC[C@H](N)C(=O)O; Dab = NCC[C@H](N)C(=O)O Some results are limits rather than exact numbers.
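Throughout, for GI50: MTT reduction read as absorbance at 595 nm, blank-corrected and expressed as percent growth relative to the time-zero cell reading, triplicate wells per concentration.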

Chain of CXCR4 (P61073 whole entry): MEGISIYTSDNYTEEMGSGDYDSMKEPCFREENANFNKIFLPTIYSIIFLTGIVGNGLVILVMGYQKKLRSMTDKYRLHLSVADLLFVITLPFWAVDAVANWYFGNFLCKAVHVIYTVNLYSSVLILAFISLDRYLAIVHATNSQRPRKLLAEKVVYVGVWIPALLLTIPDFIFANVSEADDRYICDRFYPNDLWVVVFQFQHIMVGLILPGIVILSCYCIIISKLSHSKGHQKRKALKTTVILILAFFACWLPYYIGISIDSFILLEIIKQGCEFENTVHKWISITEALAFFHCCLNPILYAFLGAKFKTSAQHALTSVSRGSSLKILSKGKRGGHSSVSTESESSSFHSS

The GI50 is the concentration that inhibits growth by half. Read a low GI50 as greater sensitivity of the cells. Broadly, the IC50 is the concentration that gives 50% inhibition. As for `N=C(N)NCCC[C@@H]1NC(=O)[C@@H]2CSSC[C@H](NC(=O)[C@H](Cc3ccc4ccccc4c3)NC(=O)[C@H](CCCNC(=N)N)NC(=O)[C@H](CCCNC(=N)N)NC(=O)[C@H]3CCCN3C(=O)CNC1=O)C(=O)N[C@@H](Cc1ccc(O)cc1)C(=O)N[C@@H](CCC(N)=O)C(=O)N[C@@H](CCCCN)C(=O)N1CCC[C@@H]1C(=O)N1CCC[C@H]1C(=O)N[C@@H](Cc1ccc(O)cc1)C(=O)N[C@@H](CCCNC(=N)N)C(=O)N[C@@H](Cc1c[nH]cn1)C(=O)N2` [Ex. 70] (cyclo(YRHCRG[dP]RR[2Nal]CYQK[dP]P); disulfide 4-11), in series [1], the Hemolysis at 100 μM worked out at 0.2%. In the series “in vitro”, this compound had a 50% growth inhibitory concentration (GI50) at 48 h of 40 µM. The IC50 at CXCR4 (setting [2]) amounted to 19.5 nM.
Taken in the same sequence, the figures for `N=C(N)NCCC[C@@H]1NC(=O)[C@@H]2CSSC[C@H](NC(=O)[C@H](Cc3ccc4ccccc4c3)NC(=O)[C@H](CCCNC(=N)N)NC(=O)[C@H](Cc3c[nH]c4ccccc34)NC(=O)[C@H]3CCCN3C(=O)CNC1=O)C(=O)N[C@@H](Cc1ccc(O)cc1)C(=O)N[C@@H](CCC(N)=O)C(=O)N[C@@H](CCCCN)C(=O)N1CCC[C@@H]1C(=O)N1CCC[C@H]1C(=O)N[C@@H](Cc1ccc(O)cc1)C(=O)N[C@@H](CCCNC(=N)N)C(=O)N[C@@H](CCCNC(N)=O)C(=O)N2` [Ex. 55] (cyclo(YR[Cit]CRG[dP]WR[2Nal]CYQK[dP]P); disulfide 4-11) were 0.1%, 43 µM and 6.3 nM.
`COCCOCCOCC(=O)N[C@H]1C[C@H]2C(=O)N[C@@H](Cc3ccc(O)cc3)C(=O)N[C@@H](CCCNC(=N)N)C(=O)N[C@@H](CCCNC(N)=O)C(=O)N[C@H]3CSSC[C@H](NC(=O)[C@H](Cc4c[nH]c5ccccc45)NC(=O)[C@H](CCCNC(=N)N)NC(=O)[C@H](CCCNC(=N)N)NC(=O)[C@H]4CCCN4C(=O)CNC(=O)[C@H](CCCNC(=N)N)NC3=O)C(=O)N[C@@H](Cc3ccc(O)cc3)C(=O)N[C@@H](CCCNC(N)=O)C(=O)N[C@@H](CCCCN)C(=O)N3CCC[C@@H]3C(=O)N2C1` [Ex. 116] (cyclo(YR[Cit]CRG[dP]RRWCY[Cit]K[dP][X3]); disulfide 4-11): in series [1] (setting [3]), the Hemolysis at 100 μM amounted to 0%. For the same compound, growth in “in vitro” was halved (GI50 at 48 h) at 20 µM. The IC50 at CXCR4 (IC50 (nM) Ca^2+ assay) was determined as 14.5 nM.
In series [1] (setting [3]), `N=C(N)NCCC[C@@H]1NC(=O)[C@@H]2CSSC[C@H](NC(=O)[C@H](Cc3ccc(O)cc3)NC(=O)[C@H](CCCNC(=N)N)NC(=O)[C@H](CCCNC(=N)N)NC(=O)[C@H]3CCCN3C(=O)CNC1=O)C(=O)N[C@@H](Cc1ccc(O)cc1)C(=O)N[C@@H](CCC(N)=O)C(=O)N[C@@H](CCCCN)C(=O)N[C@H](CCC(N)=O)C(=O)N1CCC[C@H]1C(=O)N[C@@H](Cc1ccc(O)cc1)C(=O)N[C@@H](CCCNC(=N)N)C(=O)N[C@@H](CCCNC(N)=O)C(=O)N2` [Ex. 149] (cyclo(YR[Cit]CRG[dP]RRYCYQK[dQ]P); disulfide 4-11) had a Hemolysis at 100 μM of 0%. The compound also registered a GI50 at 48 h in “in vitro” greater than 100 µM. Further, at CXCR4 (IC50 (nM) Ca^2+ assay), the IC50 is 1 nM.
In turn, `N=C(N)NCCC[C@@H]1NC(=O)[C@@H]2CSSC[C@H](NC(=O)[C@H](Cc3ccc4ccccc4c3)NC(=O)[C@H](CCCNC(=N)N)NC(=O)[C@H](CCCNC(=N)N)NC(=O)[C@H]3CCCN3C(=O)CNC1=O)C(=O)N[C@@H](Cc1ccc(O)cc1)C(=O)N[C@@H](CCC(N)=O)C(=O)N[C@@H](CCCCN)C(=O)N1CCC[C@@H]1C(=O)N1CCC[C@H]1C(=O)N[C@@H](Cc1ccc(O)cc1)C(=O)N[C@@H](CCCNC(=N)N)C(=O)N[C@@H](Cc1ccc(O)cc1)C(=O)N2` [Ex. 72] (cyclo(YRYCRG[dP]RR[2Nal]CYQK[dP]P); disulfide 4-11) yielded a Hemolysis at 100 μM in series [1] of 0.5%. For the same compound, the GI50 at 48 h in “in vitro” was 36 µM. The IC50 at CXCR4 (setting [2]) came out at 3.9 nM.
Taken in the same sequence, the figures for `N=C(N)NCCC[C@@H]1NC(=O)[C@@H]2CSSC[C@H](NC(=O)[C@H](Cc3ccc4ccccc4c3)NC(=O)[C@H](CCCNC(=N)N)NC(=O)[C@H](CCN)NC(=O)[C@H]3CCCN3C(=O)CNC1=O)C(=O)N[C@@H](Cc1ccc(O)cc1)C(=O)N[C@@H](CCCNC(N)=O)C(=O)N[C@@H](CCCCN)C(=O)N1CCC[C@@H]1C(=O)N1CCC[C@H]1C(=O)N[C@@H](Cc1ccc(O)cc1)C(=O)N[C@@H](CCCNC(=N)N)C(=O)N[C@@H](CCCNC(N)=O)C(=O)N2` [Ex. 134] (cyclo(YR[Cit]CRG[dP][Dab]R[2Nal]CY[Cit]K[dP]P); disulfide 4-11) were 0%, 21 µM and 1.7 nM.
Consider `CC[C@H](C)[C@@H]1NC(=O)[C@@H]2CCCN2C(=O)[C@H]2CCCN2C(=O)[C@H](CCCCN)NC(=O)[C@H](CCC(N)=O)NC(=O)[C@H](Cc2ccc(O)cc2)NC(=O)[C@@H]2CSSC[C@H](NC(=O)[C@H](CCCNC(N)=O)NC(=O)[C@H](CCCNC(=N)N)NC1=O)C(=O)N[C@@H](CCCNC(=N)N)C(=O)NCC(=O)N1CCC[C@@H]1C(=O)N[C@@H](CCCNC(=N)N)C(=O)N[C@@H](CCCNC(=N)N)C(=O)N[C@@H](Cc1ccc3ccccc3c1)C(=O)N2` [Ex. 65] (cyclo(IR[Cit]CRG[dP]RR[2Nal]CYQK[dP]P); disulfide 4-11), for which the Hemolysis at 100 μM in series [1] turned out to be 0.2%. In “in vitro”, this compound showed a GI50 at 48 h of 65 µM. Besides, the IC50 at CXCR4 (setting [2]) is 3.9 nM.
Taken in the same sequence, the figures for `N=C(N)NCCC[C@@H]1NC(=O)[C@@H]2CSSC[C@H](NC(=O)[C@H](Cc3ccc4ccccc4c3)NC(=O)[C@H](CCCNC(=N)N)NC(=O)[C@H](CCCNC(=N)N)NC(=O)[C@H]3CCCN3C(=O)CNC1=O)C(=O)N[C@@H](Cc1ccc(O)cc1)C(=O)N[C@@H](CCC(N)=O)C(=O)N[C@@H](CC(N)=O)C(=O)N1CCC[C@@H]1C(=O)N1CCC[C@H]1C(=O)N[C@@H](Cc1ccc(O)cc1)C(=O)N[C@@H](CCCNC(=N)N)C(=O)N[C@@H](CCCNC(N)=O)C(=O)N2` [Ex. 84] (cyclo(YR[Cit]CRG[dP]RR[2Nal]CYQN[dP]P); disulfide 4-11) were 0%, 62 µM and 3.9 nM.
Taken in the same sequence, the figures for `N=C(N)NCCC[C@@H]1NC(=O)[C@@H]2CSSC[C@H](NC(=O)[C@H](Cc3c[nH]c4ccccc34)NC(=O)[C@H](CCCNC(=N)N)NC(=O)[C@H](Cc3ccc(F)cc3)NC(=O)[C@H]3CCCN3C(=O)CNC1=O)C(=O)N[C@@H](Cc1ccc(O)cc1)C(=O)N[C@@H](CCCNC(N)=O)C(=O)N[C@@H](CCCCN)C(=O)N1CCC[C@@H]1C(=O)N1CCC[C@H]1C(=O)N[C@@H](Cc1ccc(O)cc1)C(=O)N[C@@H](CCCNC(=N)N)C(=O)N[C@@H](CCCNC(N)=O)C(=O)N2` [Ex. 122] (cyclo(YR[Cit]CRG[dP][Phe(4-F)]RWCY[Cit]K[dP]P); disulfide 4-11) were 0%, 60 µM and 8.8 nM.
Taken in the same sequence, the figures for `C[C@@H](O)[C@@H]1NC(=O)[C@H](Cc2ccncc2)NC(=O)[C@H](Cc2ccc(O)cc2)NC(=O)[C@@H]2CCCN2C(=O)[C@H]2CCCN2C(=O)[C@H](CCCCN)NC(=O)[C@H](CCC(N)=O)NC(=O)[C@H](Cc2ccc(O)cc2)NC(=O)[C@@H]2CSSC[C@H](NC1=O)C(=O)N[C@@H](CCCNC(=N)N)C(=O)NCC(=O)N1CCC[C@@H]1C(=O)N[C@@H](CCCNC(=N)N)C(=O)N[C@@H](CCCNC(=N)N)C(=O)N[C@@H](Cc1c[nH]c3ccccc13)C(=O)N2` [Ex. 119] (cyclo(Y[4Pal]TCRG[dP]RRWCYQK[dP]P); disulfide 4-11) were 0%, 63 µM and 9.4 nM.

Source of the values: patent US8895695B2, “Template-fixed beta-hairpin peptidomimetics with CXCR4 antagonizing activity” (priority 2003, dated 2014).
